Ends that are not written are not given here.

One assay concerns SKOV3 tumors. Briefly: In vivo efficacy on established SKOV3 tumors. More on the design: species or system mice. As to conditions: day 16; cisplatin 5 mg/kg i.p., IRIS peptide 10 mg/kg i.t., every third day, four times. Here is the method: Further, to determine whether IRIS peptide could have any efficacy in vivo and/or whether it sensitizes ovarian tumors to low, clinically relevant concentrations of cisplatin, four sets of nude mice (n=6 each) were subcutaneously injected with SKOV3 cells. Ten days later, when tumors were ˜250 mm^3 in volume, one group was treated with controls (i.e. DMSO delivered i.p. and scrambled peptide delivered directly into the tumors, i.t.), a second group was treated with cisplatin (5 mg/kg, delivered i.p.), a third group was treated with IRIS peptide (10 mg/kg, injected i.t.), and a fourth group was treated with both. Treatments were delivered every third day for a total of four times. For the next 16 days, tumors were measured daily with a caliper. Mice were then sacrificed, and their tumors or their remnants were taken.
Efficacy of BRCA1-IRIS inhibitory peptide, in vivo. Six to eight week old female athymic SCID mice were injected subcutaneously with 2.5×10^6 SKOV3 cells in the flank region. Their respective tumor growth was measured with a caliper. When the tumor volume reached 250 mm^3, mice were randomly grouped into four groups. One group (control) was treated with scrambled peptide (10 mg/kg) and DMSO. A second was treated with BRCA1-IRIS inhibitory peptide (10 mg/kg, body weight). […] Change in tumor volume was measured to monitor the efficacy of the treatment. […]

The subject of a further assay is MDA-MB-231 cells. As to conditions: 48 h.
The next assay deals with SKOV3 cells. The assay is classed as cell-based, human. As to conditions: 48 h. On the procedure: Thus, a peptide (hereafter IRIS peptide) composed of a cell/nucleus penetrating signal (FIG. 26) fused to BRCA1-IRIS intron 11 (FIG. 26) was synthesized. Equal numbers of HOSE, HOSE/IRIS, SKOV3, OVCAR3, OVCAR420 and OV-90 cells were grown in the presence of increasing concentrations of IRIS peptide for 48 hours.
To investigate the contribution of ErbB2 and TrkB to BRCA1-IRIS-induced cisplatin resistance, equal numbers of SKOV3 cells were either depleted from BRCA1-IRIS, ErbB2 or TrkB using specific siRNAs for 48 hours before they were (i) exposed to increasing concentrations of cisplatin for another 24 hours or (ii) exposed to IRIS peptide, ErbB2 inhibitor (CP-724714), TrkB inhibitor (K252a) or both for 24 hours, before they were exposed to increasing concentrations of cisplatin for another 24 hours.
Cell viability measurement. Cell viability under different experimental conditions was determined using the MTS assay […]. Briefly, SKOV3, OVACAR3, HOSE and HOSE/IRIS cells (2.5×10^4 cells per well) were seeded in 96 well plates and incubated overnight at 37° C. in 10% humidified CO2 atmosphere in varying concentrations of IRIS peptide, or inhibitors of ErbB2 (CP-724714), EGFR (Erlotinib), TrkB (K252a), JNK (SP600125), p38 (SB203580), ERK (PD98059) and PI3′K/AKT (LY294002) inhibitors for 24 hours at 37° C. Cell Titer 96® Aqueous (Promega, Madison, Wis., USA) was used to measure viability following manufactures instructions. Cell viability (%) was expressed as a ratio to control cells×100. Growth inhibition was also determined by manually counting cells in five different microscopic fields. Change in cell numbers (fold) was expressed as a ratio to control cells×100. All experiments were done in at least triplicates, three different times. * is p≦0.05, ** is p≦0.001 and *** is p≦0.0001.
Transfections of siRNA. siRNAs for human ErbB2 and TrkB were purchased from Ambion and Santa Cruz Biotechnology, USA. Custom synthesized siRNA against BRCA1 IRIS was used. siRNA against luciferase gene was used as the negative control. Sub-confluent cells were transfected in 6- or 96-well plates with ErbB2 (100 nM), TrkB (100 nM), BRCA1 IRIS (200 nM) or control siRNA using Oligofectamine™ reagent (GibcoBRL Inc, USA) following the instructions of the manufacturer. Protein expression was tested by Western blot after 72 hours of siRNA transfection. Cell viability was evaluated by MTS or by manual counting after 72 hours of siRNA exposure alone or in combination with cisplatin exposure (for an additional 24 hours).

Protocol for MDA-MB-231 cells: All cell lines were exposed to increasing concentrations of paclitaxel and BRCA1-IRIS expression, and cells' viability was then measured.
Stable clones were then exposed to 0, 10 or 20 μM of EGFR (Erlotinib), ErbB2 (CP-724714), PI3′K/AKT (LY294002), p38 (SB203580), ERK (PD98059) or JNK (SP600125) inhibitors for 24 hours.
First, to assess the effect of this IRIS peptide, equal numbers of HME, HME/IRIS, MDA-MB-231, MDA-MB-468 and BT549 cells were exposed to increasing concentrations of scrambled or IRIS peptide for 48 hours.
Cell viability under different experimental conditions was determined using the MTS assay. Briefly, cells (2.5×10^4 cells per well) were seeded in 96-well plates and incubated overnight at 37° C. in 10% humidified CO2 atmosphere. The next day they were incubated with varying concentration of peptide, or inhibitors for 24 hours at 37° C. Cell viability was determined using cell Titer 96® Aqueous (Promega, Madison, Wis., USA) following manufacturer's instructions. Cell viability (%) was expressed as a ratio of treated cells to control cells×100. Growth inhibition was also determined by manually counting cells in five different microscopic fields. Change in cell numbers (fold) was expressed as a ratio of the means of these recording of treated cells compared to control cells×100. Each experiment was done in triplicate, repeated three separate times.

The IC50 is the concentration needed to halve the response being measured. With “RRIRPRPPRLPRPRPRPLPFPRPGIGTRFLCLPQSIYRSELNVYAFGEHILQISKYS [IRIS peptide]”, the “reduction in tumor size” value with SKOV3 tumors is on record as about 50%. Besides, the IC50 with MDA-MB-231 cells is about 5 µM; with SKOV3 cells, about 10 µM.

These data come from patent US9303069B2, “Peptides for treating cancer” (University of Mississippi Medical Center, priority 2014, dated 2016).
